# From US11312676B2, “Small molecule stimulators of steroid receptor coactivator proteins and their use in the treatment of cancer” (BAYLOR COLLEGE OF MEDICINE, priority 2014, dated 2022)
# Assays:
# [1] = target: T1, basic helix-loop-helix (bHLH) domain of SRC-3 (Homo sapiens, UniProt Q9Y6Q9); assay: Fluorescence spectroscopy, intrinsic fluorescence of GST SRC-3 bHLH; assay type: binding; details: 1.5 μM GST SRC-3 bHLH
# T1 construct: MCB-613 also affected the fluorescence of the basic helix-loop-helix (bHLH) domain; made in house
# T1 sequence (Q9Y6Q9 25-82 limits assumed): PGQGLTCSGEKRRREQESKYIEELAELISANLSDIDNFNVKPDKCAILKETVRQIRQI
# Procedure: Fluorescence spectrometric measurements were performed on a SLM 48000S fluorescence spectrophotometer (SLM-Aminco, Rochester, N.Y.) and an Agilent Cary Eclipse Fluorescence spectrophotometer (Agilent Technologies, Inc., Santa Clara, Calif.) using the GST fusion proteins of different portions of SRC-3 expressed and purified. A total of 1.5 μM of GST SRC-3 RID, CID or bHLH was placed in a fluorescence cuvette and excited by UV light at a wavelength of 278 nm with a 2 nm bandwidth and the emission spectra were recorded from 290 nm to above 500 nm with a bandwidth of 4 nm. The aliquot size of test compound was maintained below 5% of the total sample volume in order to minimize the effects of dilution.
# Abl kinase = assay: CrkL (Y207) phosphorylation as marker for Abl activation in HeLa cells; assay type: cell-based; details: 1 hour and 4 hours
# Procedure: For Western blotting, cells were harvested and lysed in lysis buffer (50 mM Tris, pH 8.0, 150 mM NaCl, 10% glycerol, 0.5% NP40, protease and phosphatase inhibitor) and then centrifuged for 15 min at 14000 rpm at 4° C. After total cellular protein concentration was determined by Bradford analysis (Bio-Rad, Hercules, Calif.), protein lysates were loaded onto and resolved by sodium dodecyl sulfate-polyacrylamide gel electrophoresis (SDS-PAGE) and transferred to PVDF membranes (BioRad) which were blocked and incubated with indicated antibodies. For immunoprecipitation, 10 μg of plasmid encoding FLAG-SRC-3 was transfected into HeLa cells with 90% confluence in one 10 cm plate with lipofectamine 2000 (Invitrogen). Twenty-four hours after transfection, the cells were treated with MCB-613 for one hour and lysed with lysis buffer (25 mM Tris-Cl pH7.5, 150 mM NaCl, 5% glycerol, 1 mM EDTA, 1% Triton X-100, protease and phosphatase inhibitor) at 4° C. After a 30-second sonication, the lysate was cleared by centrifugation at 14000 rpm at 4° C. for 15 minutes and was incubated with anti-Flag-M2 agarose affinity gel (Sigma) for four hours. The agarose gel was washed four times with washing buffer (25 mM Tris pH 8.0, 150 mM NaCl, 1 mM EDTA, 1% Triton X-100) and resuspended with SDS loading buffer for Western blotting. […]
# SRC-1 [2] = target: T2, SRC-1 (Homo sapiens, UniProt Q15788); assay: Gal4 luciferase reporter assay (pBIND-SRC-1 + pG5-LUC) in HeLa cells; assay type: cell-based; set-up: expressed in transfected cells; host or cells: HeLa; details: 24-hour treatment, 5-8 μM, maximum over SRC-1/-2/-3
# T2 sequence (Q15788 whole entry, the tested form may be a part): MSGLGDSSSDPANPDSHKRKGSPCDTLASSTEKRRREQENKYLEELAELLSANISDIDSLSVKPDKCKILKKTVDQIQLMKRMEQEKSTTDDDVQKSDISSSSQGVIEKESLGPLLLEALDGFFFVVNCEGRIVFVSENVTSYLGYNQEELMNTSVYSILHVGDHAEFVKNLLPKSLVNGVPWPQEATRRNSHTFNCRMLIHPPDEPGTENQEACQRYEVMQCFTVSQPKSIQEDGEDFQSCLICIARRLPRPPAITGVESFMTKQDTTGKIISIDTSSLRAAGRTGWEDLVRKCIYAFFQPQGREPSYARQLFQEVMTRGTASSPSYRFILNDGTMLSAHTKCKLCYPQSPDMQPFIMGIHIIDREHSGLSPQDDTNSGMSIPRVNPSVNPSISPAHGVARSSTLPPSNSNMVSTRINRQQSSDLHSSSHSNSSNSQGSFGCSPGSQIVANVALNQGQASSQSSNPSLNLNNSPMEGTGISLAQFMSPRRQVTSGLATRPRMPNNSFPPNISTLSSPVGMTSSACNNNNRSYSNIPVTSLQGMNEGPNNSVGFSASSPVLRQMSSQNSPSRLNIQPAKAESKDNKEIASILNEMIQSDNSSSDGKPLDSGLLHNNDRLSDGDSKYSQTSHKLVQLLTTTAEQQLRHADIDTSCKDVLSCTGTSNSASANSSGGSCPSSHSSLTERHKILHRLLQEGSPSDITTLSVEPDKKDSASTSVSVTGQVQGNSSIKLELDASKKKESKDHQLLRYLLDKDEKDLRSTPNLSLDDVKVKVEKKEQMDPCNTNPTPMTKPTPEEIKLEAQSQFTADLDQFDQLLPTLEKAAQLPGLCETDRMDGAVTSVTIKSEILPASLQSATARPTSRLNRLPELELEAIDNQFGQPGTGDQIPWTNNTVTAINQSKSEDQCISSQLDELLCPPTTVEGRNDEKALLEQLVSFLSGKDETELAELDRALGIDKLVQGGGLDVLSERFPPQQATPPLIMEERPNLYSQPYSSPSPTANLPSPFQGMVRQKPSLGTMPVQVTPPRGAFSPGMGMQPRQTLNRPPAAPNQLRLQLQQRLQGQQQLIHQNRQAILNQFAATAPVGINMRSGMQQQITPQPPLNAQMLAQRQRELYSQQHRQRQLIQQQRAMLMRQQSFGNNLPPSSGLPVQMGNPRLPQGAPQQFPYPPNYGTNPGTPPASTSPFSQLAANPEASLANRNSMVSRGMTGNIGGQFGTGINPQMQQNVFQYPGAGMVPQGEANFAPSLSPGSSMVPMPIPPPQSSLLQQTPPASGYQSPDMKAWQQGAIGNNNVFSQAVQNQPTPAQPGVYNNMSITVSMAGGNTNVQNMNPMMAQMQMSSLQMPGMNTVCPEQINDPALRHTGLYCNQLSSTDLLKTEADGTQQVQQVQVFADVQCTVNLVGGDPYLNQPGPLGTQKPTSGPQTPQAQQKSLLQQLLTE
# Procedure: (§1) The constructs expressing the Gal4 responsive luciferase reporter (pG5-luc), Gal4 DBD fusion with SRC-1, […] (pBIND-SRC-1/-2/-3), MMP2 or MMP13 promoter driven luciferase reporter (MMP2-luc, MMP13-luc) were prepared. Twenty-four hours before transfection, HeLa cells were plated in 24-well dishes. The indicated expression plasmids were transfected into cells using Lipofectamine 2000 according to the manufacturer's instructions.
# (§2) After various compound treatments, cells were lysed in luciferase lysis buffer and assayed for luciferase activity using the ONE-Glo luciferase assay system (Promega, Madison, Wis.). All luciferase activities were normalized to protein concentration determined by Bradford assay (Bio-Rad, Hercules, Calif.).
# PC-3 (prostate) cells = assay: MTS cell viability assay, PC-3; assay type: cell-based; details: PC-3, 48 hours
# Procedure: (§3) Cell lines were maintained in DMEM (HeLa, MCF-7, HepG2), RPMI 1640 (H1299), or DMEM/F12 (PC-3) supplemented with 10% fetal calf serum, penicillin and streptomycin (100 U/ml). Primary mouse hepatocytes were isolated and cultured. Mouse embryonic fibroblasts (MEF) were cultured in DMEM. All cells were maintained at 37° C. under 5% CO2.
# (§4) Cells were seeded in 96-well plates and allowed to reach 70% to 80% confluence. After indicated compound treatments, relative numbers of viable cells were measured by MTS assay using the Cell Titer 96 Aqueous One Solution Cell Proliferation Assay (Promega).
# HepG2 (liver) cells = assay: MTS cell viability assay, HepG2; assay type: cell-based; details: HepG2, 48 hours
# Procedure: as §3, §4
# SRC-1 [3] = target: T2, SRC-1; assay: High throughput primary screen, HEK293 cells with pG5-luc and pBIND-SRC-1; assay type: cell-based; set-up: expressed in transfected cells; details: among 359,484 compounds
# Excerpt: In a series of high throughput screens originally designed to identify SRC small molecule inhibitors, HEK293 cells transfected with a Gal4 responsive luciferase reporter (pG5-luc) and a construct encoding SRC-1, SRC-2 or SRC-3 fused with the DNA binding domain of Gal4 (pBIND-SRC-1, pBIND-SRC-2 or pBIND-SRC-3) were exposed to treatments with 359,484 compounds from a MLPCN chemical library (PubChem AID:588362, AID:652008 and AID:588354).
# MCF-7 (breast) cells = assay: MTS cell viability assay, MCF-7; assay type: cell-based; details: MCF-7, 48 hours
# Procedure: as §3, §4
# MMP13 expression = assay: qRT-PCR of endogenous MMP13 in MDA-MB-231 cells; assay type: cell-based; details: 24 hours
# MMP13 promoter = assay: MMP13-luc reporter with SRC-3 expression vector in HeLa cells; assay type: cell-based; details: 24 hours
# Procedure: as §1, §2
# SRC-3 = target: T3, SRC-3 (Homo sapiens, UniProt Q9Y6Q9); assay: Gal4 luciferase reporter assay (pBIND-SRC-3 + pG5-LUC) in HeLa cells; assay type: cell-based
# T3 construct: expressed in transfected cells; host or cells: HeLa
# T3 sequence (Q9Y6Q9 whole entry, the tested form may be a part): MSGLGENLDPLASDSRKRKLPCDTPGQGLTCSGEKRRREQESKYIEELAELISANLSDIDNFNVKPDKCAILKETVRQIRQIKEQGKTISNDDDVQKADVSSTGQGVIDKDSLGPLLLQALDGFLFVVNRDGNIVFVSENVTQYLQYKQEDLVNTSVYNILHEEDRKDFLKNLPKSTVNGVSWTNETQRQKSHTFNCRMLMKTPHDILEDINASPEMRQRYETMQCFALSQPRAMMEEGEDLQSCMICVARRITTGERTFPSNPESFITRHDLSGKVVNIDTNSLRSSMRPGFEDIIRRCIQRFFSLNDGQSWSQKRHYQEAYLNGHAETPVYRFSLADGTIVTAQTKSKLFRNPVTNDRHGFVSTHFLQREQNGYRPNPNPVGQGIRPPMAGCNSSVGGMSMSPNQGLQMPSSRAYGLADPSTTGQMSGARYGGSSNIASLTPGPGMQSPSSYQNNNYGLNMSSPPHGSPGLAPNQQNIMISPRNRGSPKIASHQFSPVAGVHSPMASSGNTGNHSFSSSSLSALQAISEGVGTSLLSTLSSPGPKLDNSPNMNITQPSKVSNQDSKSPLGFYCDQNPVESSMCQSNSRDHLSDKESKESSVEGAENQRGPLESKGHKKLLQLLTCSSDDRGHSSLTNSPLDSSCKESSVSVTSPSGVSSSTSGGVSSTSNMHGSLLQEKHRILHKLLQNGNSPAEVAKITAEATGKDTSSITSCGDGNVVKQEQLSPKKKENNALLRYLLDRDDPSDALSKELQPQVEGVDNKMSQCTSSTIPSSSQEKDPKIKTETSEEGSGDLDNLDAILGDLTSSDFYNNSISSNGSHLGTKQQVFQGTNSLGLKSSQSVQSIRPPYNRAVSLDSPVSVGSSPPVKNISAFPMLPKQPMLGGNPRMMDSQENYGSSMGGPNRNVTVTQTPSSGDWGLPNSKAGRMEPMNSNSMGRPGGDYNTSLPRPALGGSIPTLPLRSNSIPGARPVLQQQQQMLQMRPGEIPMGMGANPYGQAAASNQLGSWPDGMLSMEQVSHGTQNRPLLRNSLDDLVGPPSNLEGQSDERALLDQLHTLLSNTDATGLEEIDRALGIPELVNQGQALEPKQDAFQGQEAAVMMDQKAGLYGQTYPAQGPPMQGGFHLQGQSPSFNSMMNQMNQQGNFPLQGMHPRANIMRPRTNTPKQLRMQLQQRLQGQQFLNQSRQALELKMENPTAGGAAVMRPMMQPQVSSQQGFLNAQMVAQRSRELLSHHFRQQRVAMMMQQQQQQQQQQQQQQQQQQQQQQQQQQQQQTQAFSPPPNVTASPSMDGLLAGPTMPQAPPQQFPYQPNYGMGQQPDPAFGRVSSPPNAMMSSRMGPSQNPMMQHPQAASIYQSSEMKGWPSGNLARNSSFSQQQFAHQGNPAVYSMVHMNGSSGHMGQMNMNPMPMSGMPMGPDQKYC
# Procedure: as §1, §2
# HeLa cells were transfected with a Gal4 responsive luciferase reporter (pG5-luc) and a construct encoding SRC-1, SRC-2 or SRC-3 fused with the DNA binding domain of Gal4 (pBIND-SRC-1, pBIND-SRC-2 or pBIND-SRC-3) were treated with the indicated compounds.
structure (smiles),measurement,setting,value
"CCC1CC(=Cc2cccnc2)C(=O)C(=Cc2cccnc2)C1 (centres unmarked) [MCB-613, 4-Ethyl-2,6-bis-pyridin-3-ylmethylene-cyclohexanone]",concentration affecting the fluorescence of the bHLH domain,[1],2 µM
same,activation of Abl (CrkL Y207 phosphorylation),Abl kinase,activation of Abl could be observed as early as one hour
same,induction in the activity of pBIND-SRC-1,SRC-1 [2],≤ 160 fold
same,"cytotoxicity, cell viability",PC-3 (prostate) cells,efficiently kill
same,"cytotoxicity, cell viability",HepG2 (liver) cells,efficiently kill
same,activation of SRC-1 in the primary screen,SRC-1 [3],greatest activation
same,"cytotoxicity, cell viability",MCF-7 (breast) cells,efficiently kill
same,endogenous MMP13 expression,MMP13 expression,activated
same,SRC-3's coactivation of the MMP13 promoter,MMP13 promoter,greatly enhanced
same,induction in the activity of pBIND-SRC-3,"SRC-3; 24-hour treatment, 5-8 μM, maximum over SRC-1/-2/-3",≤ 160 fold
same,SRC activity after 4 hours of treatment,"SRC-3; 4 hours, 6-10 μM",significant increase
